According to patent publication US20140038920A1, “TFEB PHOSPHORYLATION INHIBITORS AND USES THEREOF” (FONDAZIONE TELETHON, priority 2011, published 2014):

Test system: TFEB
Assay: High content TFEB-GFP nuclear translocation assay
Format: cell-based
Conditions: Homo sapiens; mobilization of cytosolic TFEB to the nucleus; TFEB-GFP HeLa cells, 3 h at 37° C. in RPMI, ten concentrations 50 μM to 2.54 nM, 4 runs; read-out: Average EC50
Method: Immunoblotting of protein extracts isolated from HeLa cells treated overnight, as indicated. Membranes were probed with antibodies for p-T202/Y204-ERK1/2, ERK1/2, p-T389-S6K, and S6K to measure ERK and mTORC1 activities. […] FLAG immunoblotting of cytosolic and nuclear fractions isolated from TFEB-3×FLAG HeLa cells cultured in amino acid-free media and subsequently stimulated as indicated for at least 3 h. Correct subcellular fractionation was verified with H3 and tubulin antibodies. […] After 3 h at 37° C. in RPMI medium containing one of each of the compounds, the cells were washed, fixed, and stained with DAPI and photographed by using confocal automated microscopy (Opera high content system, Perkin Elmer). […] Scale bars represent 30 μm. […] The EC50 for each compound was calculated using Prism software (see Materials and Methods for details). […] Antibody used were p-T389-S6K, S6K and FLAG. […] HeLa cells stably expressing Flag-3×TFEB were infected with lentiviruses encoding a Short hairpin (Sh-) RNA targeting luciferase (control) or RagC and RagD mRNAs. […] TFEB localization was detected with a FLAG antibody, whereas tubulin and H3 were used as controls for the cytosolic and nuclear fraction, respectively; levels of S6K phosphorylation were used to test RagC and RagD knockdown efficiency.
After 3 hours at 37° C. in RPMI medium cells were washed, fixed, and stained with DAPI. For the acquisition of the images, ten pictures per each well of the 384-well plate were taken by using confocal automated microscopy (Opera high content system, Perkin Elmer). A dedicated script was developed to perform the analysis of TFEB localization on the different images (Acapella software, Perkin Elmer). The script calculates the ratio value resulting from the average intensity of nuclear TFEB-GFP fluorescence divided by the average of the cytosolic intensity of TFEB-GFP fluorescence. The results were normalized using negative (RPMI medium) and positive (HBSS starvation) control samples in the same plate. The data are represented by the percentage of nuclear translocation at the different concentrations of each compound using Prism software (GraphPad software). The EC50 for each compound was calculated using non-linear regression fitting (Prism software).
In order to find additional small molecules able to induce the translocation of TFEB from the cytosol to the nucleus, the applicants developed a cell-based high content assay using stable HeLa cells overexpressing TFEB fused to the green fluorescent protein (TFEB-GFP). In the assay imaging of treated cells is acquired by an automated confocal microscope (OPERA system) and the analysis of those images with Acapella image software calculates the ratio of the average of fluorescence intensity of TFEB-GFP between the cytosol and nucleus of the cell (see Materials and methods for details). […] They tested ten concentrations for each inhibitor.

SMILES | EC50
CCN1CCN(Cc2ccc(-c3cc4c(N[C@H](C)c5ccccc5)ncnc4[nH]3)cc2)CC1 [AEE788] | < 7 µM
Cc1ccc(C(=O)Nc2ccc(CN3CCN(C)CC3)c(C(F)(F)F)c2)cc1C#Cc1cnc2cccnn12 [AP24534] | < 7 µM
Clc1ccc(C2(c3ccc(-c4cn[nH]c4)cc3)CCNCC2)cc1 [AT7867] | < 7 µM
CN1CCN(CCOc2cc(OC3CCOCC3)c3c(Nc4c(Cl)ccc5c4OCO5)ncnc3c2)CC1 [AZD0530 (Saracatinib), Saracatinib] | 7 to 15 µM
CCN1CCN(C(=O)Cc2ccc(Nc3ncc(F)c(Nc4ccc(C(=O)Nc5ccccc5Cl)cc4)n3)cc2)CC1 [Aurora A inhibitor 1] | < 7 µM
CC[C@@H]1C(=O)N(C)c2cnc(Nc3ccc(C(=O)NC4CCN(C)CC4)cc3OC)nc2N1C1CCCC1 [BI2536] | < 7 µM
CN(C)C/C=C/C(=O)Nc1cc2c(Nc3ccc(F)c(Cl)c3)ncnc2cc1O[C@H]1CCOC1 [BIBW2992 (Tovok)] | < 7 µM
CNC(=O)c1ccc2c(c1)NC(=O)/C2=C(\Nc1cccc(CN(C)C)c1)c1ccccc1 [BIX 02188] | > 15 µM
CC(C)c1cnn2c(NCc3ccccc3)cc(NCCCCCCN)nc12 [BS181] | < 7 µM
Cc1c[nH]c(-c2cnc(NCCNc3ccc(C#N)cn3)nc2-c2ccc(Cl)cc2Cl)n1 [CHIR99021] | < 7 µM
Cc1nc(N)sc1-c1ccnc(Nc2ccc(N3CCOCC3)cc2)n1 [CYC116] | < 7 µM
COc1cc2c(Oc3ccc4[nH]c(C)cc4c3F)ncnc2cc1OCCCN1CCCC1 [Cediranib (AZD2171), Cediranib] | < 7 µM
C[C@@H](Oc1cc(-n2cnc3ccc(CN4CCN(C)CC4)cc32)sc1C(N)=O)c1ccccc1C(F)(F)F [GSK461364] | < 7 µM
CCS(=O)(=O)Nc1ccc2c(c1)/C(=C(/Nc1ccc(CN3CCCCC3)cc1)c1ccccc1)C(=O)N2 [Hesperadin] | 7 to 15 µM
Nc1nc(Nc2ccc(S(N)(=O)=O)cc2)nn1C(=O)c1c(F)cccc1F [JNJ-7706621] | 7 to 15 µM
COc1ccc(-c2ccc3c(N4CCOCC4)nc(N4C[C@@H](C)O[C@@H](C)C4)nc3n2)cc1CO [KU0063794] | < 7 µM
CC(C)(C)Cn1c(N)nc2ccc(-c3[nH]c(C(C)(C)C)nc3-c3ccc(F)cc3)nc21 [LY2228820] | < 7 µM
Cn1c(=O)n(-c2ccc(C(C)(C)C#N)cc2)c2c3cc(-c4cnc5ccccc5c4)ccc3ncc21 [NVP-BEZ235] | < 7 µM
CCOc1cc2ncc(C#N)c(Nc3ccc(OCc4ccccn4)c(Cl)c3)c2cc1NC(=O)/C=C/CN(C)C [Neratinib] | > 15 µM
O=C(NOC[C@H](O)CO)c1ccc(F)c(F)c1Nc1ccc(I)cc1F [PD0325901] | > 15 µM
C[C@@H](Oc1cc(-c2cnn(C3CCNCC3)c2)cnc1N)c1c(Cl)ccc(F)c1Cl [PF-02341066] | < 7 µM
CCN(CC)CCNC(=O)c1c(C)[nH]c(/C=C2\C(=O)Nc3ccc(F)cc32)c1C [Sunitinib Malate] | < 7 µM
Cc1cc(C(C)Nc2ccccc2)c2nc(N3CCOCC3)cc(=O)n2c1 (stereo not shown) [TGX 221] | < 7 µM
COC(=O)Nc1ccc(-c2nc(N3CCOCC3)c3cnn(C4CCN(C(=O)OC)CC4)c3n2)cc1 [WYE354] | 7 to 15 µM
Cc1ccc(S(=O)(=O)Nc2nc3ccccc3nc2Nc2ccc3nsnc3c2)cc1 [XL147] | < 7 µM
COc1cc2c(Oc3ccc(NC(=O)C4(C(=O)Nc5ccc(F)cc5)CC4)cc3F)ccnc2cc1OCCCN1CCOCC1 [XL880 (GSK1363089)] | < 7 µM
N#CC(=C(/N)Sc1ccccc1N)/C(C#N)=C(\N)Sc1ccccc1N [drawing 34] | > 15 µM

The remaining lines, values ahead:

EC50 | SMILES
< 7 µM | Nc1ncnc2c1c(-c1cccc(OCc3ccccc3)c1)cn2C1CC(CN2CCCC2)C1 (stereo in doubt) [NVP-ADW742]
7 to 15 µM | CN(C)Cc1cccc(N/C(=C2\C(=O)Nc3cc(C(=O)N(C)C)ccc32)c2ccccc2)c1 [BIX02189]
7 to 15 µM | Nc1nccc(Oc2ccc(NC(=O)c3c[nH]cc(-c4ccc(F)cc4)c3=O)cc2F)c1Cl [BMS 794833]
< 7 µM | CN(C)c1ccc(-c2nc3c(N4CCN(CC(=O)Nc5nccs5)CC4)c(Cl)cnc3[nH]2)cc1 [CCT129202]
< 7 µM | C=CC(=O)Nc1cc2c(Nc3ccc(F)c(Cl)c3)ncnc2cc1OCCCN1CCOCC1 [CI-1033]
7 to 15 µM | CO[C@H]1C[C@@H]2CC[C@@H](C)[C@@](O)(O2)C(=O)C(=O)N2CCCC[C@H]2C(=O)O[C@H]([C@H](C)C[C@@H]2CC[C@@H](OP(C)(C)=O)[C@H](OC)C2)CC(=O)[C@H](C)/C=C(\C)[C@@H](O)[C@@H](OC)C(=O)[C@H](C)C[C@H](C)/C=C/C=C/C=C/1C [Deforolimus]
< 7 µM | Cc1cc(Nc2cc(N3CCN(C)CC3)nc(/C=C/c3ccccc3)n2)n[nH]1 [ENMD-2076]
< 7 µM | Cn1cc(C2=C(c3cn(C4CCN(Cc5ccccn5)CC4)c4ccccc34)C(=O)NC2=O)c2ccccc21 [Enzastaurin]
> 15 µM | CO[C@H]1C[C@@H]2CC[C@@H](C)[C@@](O)(O2)C(=O)C(=O)N2CCCC[C@H]2C(=O)O[C@H]([C@H](C)C[C@@H]2CC[C@@H](OCCO)[C@H](OC)C2)CC(=O)[C@H](C)/C=C(\C)[C@@H](O)[C@@H](OC)C(=O)[C@H](C)C[C@H](C)/C=C/C=C/C=C/1C [Everolimus (RAD001), Everolimus]
< 7 µM | O=C1NC(=O)C(Cc2ccc3nccc(-c4ccncc4)c3c2)S1 (stereo not shown) [GSK1059615]
< 7 µM | O=c1cc(-c2cccc3c2Sc2ccccc2S3)oc(N2CCOCC2)c1 [KU-55933]
> 15 µM | C[C@@H]1CN(CC(=O)Nc2ccc3c(c2)Cc2cccc(-c4cc(=O)cc(N5CCOCC5)o4)c2S3)C[C@H](C)O1 [KU-60019]
< 7 µM | COc1cc2nccc(Oc3ccc(NC(=O)Nc4ccc(F)cc4F)c(F)c3)c2cc1OC [Ki8751]
< 7 µM | Cc1cc(Nc2cc(CN3CCOCC3)c3nc(C)c(Cc4ccc(Cl)cc4F)n3n2)[nH]n1 [LY2784544]
< 7 µM | CS(=O)(=O)CCNCc1ccc(-c2ccc3ncnc(Nc4ccc(OCc5cccc(F)c5)c(Cl)c4)c3c2)o1 [Lapatinib Ditosylate]
7 to 15 µM | NC1(c2ccc(-c3nc4ccn5c(=O)[nH]nc5c4cc3-c3ccccc3)cc2)CCC1 [MK-2206]
< 7 µM | COc1cc(N2CCC(N3CCN(C)CC3)CC2)ccc1Nc1ncc(Cl)c(Nc2ccccc2S(=O)(=O)C(C)C)n1 [NVP-TAE684]
< 7 µM | Oc1cccc(-c2nc(N3CCOCC3)c3oc4ncccc4c3n2)c1 [PI103]
< 7 µM | Cc1ccc([N+](=O)[O-])cc1S(=O)(=O)N(C)/N=C/c1cnc2ccc(Br)cn12 [PIK75]
> 15 µM | O=C1c2ccccc2-c2n[nH]c3cccc1c23 [SP600125]
7 to 15 µM | CO[C@H]1C[C@@H]2CC[C@@H](C)[C@@](O)(O2)C(=O)C(=O)N2CCCC[C@H]2C(=O)O[C@H]([C@H](C)C[C@@H]2CC[C@@H](OC(=O)C(C)(CO)CO)[C@H](OC)C2)CC(=O)[C@H](C)/C=C(\C)[C@@H](O)[C@@H](OC)C(=O)[C@H](C)C[C@H](C)/C=C/C=C/C=C/1C [Temsirolimus]
< 7 µM | COc1cc2c(Nc3ccc(Br)cc3F)ncnc2cc1OCC1CCN(C)CC1 [Vandetanib]
< 7 µM | CCC1=C[C@@H]2CN(C1)Cc1c([nH]c3ccccc13)[C@@](C(=O)OC)(c1cc3c(cc1OC)N(C)[C@H]1[C@@](O)(C(=O)OC)[C@H](OC(C)=O)[C@]4(CC)C=CCN5CC[C@]31[C@@H]54)C2 [Vinorelbine]
7 to 15 µM | C=CC(=O)Nc1cccc(Oc2nc(Nc3ccc(N4CCN(C)CC4)cc3OC)ncc2Cl)c1 [WZ4002]
< 7 µM | FC(F)c1nc2ccccc2n1-c1nc(N2CCOCC2)nc(N2CCOCC2)n1 [ZSTK474]
